From US10076522B2, “Systems and methods for treating bacterial infection” (priority 2016, dated 2018)
Converted amounts (≈) assume the structure as drawn. “Also recorded” adds a separate entry of the source.

Experiments:
[1] = Exposure to iclaprim in Phase I studies; conditions: human, plasma, intravenous, HMR 01-014, Multiple Dose Q12H × 9 days, arithmetic mean
[2] = Single-dose ECG study in healthy human volunteers (1.6 and 3.2 mg/kg over 30 minutes); format: in vivo
Method: Based on this, a single-dose ECG-study was conducted in healthy human volunteers, where 1.6 mg/kg and 3.2 mg/kg iclaprim was infused over 30 minutes. […] Maximal increases coincided with Cmax levels and were rapidly reversible. Weight-based dosing with 1.6 mg/kg was thus assessed as acceptable for clinical purposes, whereas weight-based dosing at 3.2 mg/kg was associated with relevant QTc prolongations (>60 msec) and nonspecific T-wave alterations, and was not used for further clinical studies.

clinical [3] = conditions: human, in vivo, iv, 0.8 mg/kg, mean Cmax
Method: (§1) For example, the PK profile of 0.8 mg/kg iclaprim administered by IV was investigated in 8 subjects with mild to moderate obesity (body mass index or “BMI” 30-40) and in 8 subjects with severe obesity (BMI>40). […] Linear regression analysis indicated a strong linear relationship between AUC (and Cmax) and BMI. Thus it was clear that the body composition of the subject affected the pharmacokinetics of IV administered iclaprim, with a greater percentage of body fat causing an increase in AUC and Cmax. […] Thus there is a risk of overdosing subjects with moderate hepatic impairment, which can be mitigated by reducing the IV iclaprim dose by about 50%.

SCNSA sodium channel = SCNSA sodium channel (Homo sapiens, UniProt Q14524); test: Sodium channel inhibition
[4] = human, in vivo
[5] = PK of IV iclaprim in subjects with moderate hepatic impairment; format: in vivo, human; conditions: moderate hepatic impairment (Child-Pugh grade B)
Method: as §1

[6] = molecular target: T1, hERG-mediated potassium current (Homo sapiens, UniProt Q12809); test: Inhibition of hERG-mediated potassium current in transfected CHO cells; format: cell-based; conditions: reversible inhibition
T1 construct: expressed in transfected cells; host or cells: CHO (Chinese Hamster Ovary) cells

clinical [7] = conditions: human, in vivo
cSSSIs = test: Phase III ASSIST trials, efficacy in cSSSI; format: in vivo, human; conditions: 0.8 mg/kg over 0.5 hr q12h IV
From the text: Without wishing to be bound by a particular theory, one observed disadvantage of the weight-based dosing in the previous Phase III studies is that the post-antibiotic effect achieved by the weight-based doses was not enough to sustain the T>MIC between doses. Sufficient efficacy might be achieved by increasing the amount of iclaprim administered to the subject. However, as discussed above, simply increasing the weight-based dose of iclaprim risks causing QTc prolongation.

[8] = 13-week toxicology study in the marmoset, AUC at NOAEL; conditions: monkey, in vivo
[9] = both, human, in vivo
Method: A second single-dose ECG study was conducted on healthy human volunteers using weight-based doses of 0.4 mg/kg and 0.8 mg/kg iclaprim base infused over 30 minutes and 1.6 mg/kg infused over 60 minutes.

[10] = 13-week toxicology study in the rat, AUC at NOAEL; conditions: in vivo
S. aureus = test: MIC90 in worldwide surveillance studies; format: cell-based; conditions: Staphylococcus aureus
From the text: The ASSIST-1 and ASSIST-2 studies used sparse sampling with a population PK analysis. The post-hoc estimates of the individual subject PK parameters were used to simulate the plasma iclaprim concentration-time profiles for each subject and, from those profiles, the corresponding values for Cmaxss, AUC0-24hss, AUC/MIC, and T>MIC.

clinical [11] = conditions: human, in vivo, 1 mg/kg
[12] = system: isolated rabbit Purkinje fibers
[13] = system: acute bacterial skin and skin structure infections (ABSSSIs) suspected or confirmed to be due to Gram-positive pathogens; test: Phase III REVIVE-1 study, efficacy of fixed dose iclaprim versus vancomycin; format: in vivo, human; conditions: ITT; for non-inferiority (10% margin) compared to vancomycin: 80 mg over 2 hr q12h IV
Method: Subjects were evaluated daily up to ETP, then every 48 to 72 hours through the end of treatment. If the last dose of study drug fell on a day when an evaluation was not planned, an additional evaluation visit was performed on that day (i.e., all EOT evaluations were performed on the last day [+2 days] of drug dose).
The infusion time and duration of treatment for both groups was 2 hours and 5 days (minimum duration) to 14 days (maximum duration), respectively.
The primary endpoint for clinical response (defined as the reduction in lesion size ≥20% compared to baseline) was evaluated in all randomized subjects at ETP (48 to 72 hours post-first dose). […] In addition, clinical outcome was evaluated by the investigator at EOT and TOC (7 to 14 days post EOT). The assessments of clinical outcome was categorized as cure, failure, or indeterminate.
Iclaprim was administered at a dose of 80 mg in 500 mL normal saline, infused over 2 hours q12h (every 12 hours) for 5 to 14 days. For subjects with moderate hepatic impairment (Child-Pugh Class B), iclaprim was administered at a dose of 40 mg in 500 mL normal saline, infused over 2 hours q12h for 5 to 14 days.
Dosing interval was every q12 h, q24 h, q48 h, or dosed by daily level based on creatinine clearance.
The primary efficacy endpoint was the proportion of randomized subjects who achieved an early clinical response (defined as reduction in the lesion size ≥20% compared to baseline) at 48 to 72 hours (ETP) and was evaluated among all randomized subjects (ITT population).
The NI bound were 10%. […] Equivalently, if the lower bound of the two-sided 95% CI for P1-P2 was greater than −0.100 based on the Z test with unpooled variance estimate, NI was concluded.

[14] = in vivo
[15] = 150 mg, 150 mg/EtOH & NS (20 min)

T1 sequence (Q12809 whole entry): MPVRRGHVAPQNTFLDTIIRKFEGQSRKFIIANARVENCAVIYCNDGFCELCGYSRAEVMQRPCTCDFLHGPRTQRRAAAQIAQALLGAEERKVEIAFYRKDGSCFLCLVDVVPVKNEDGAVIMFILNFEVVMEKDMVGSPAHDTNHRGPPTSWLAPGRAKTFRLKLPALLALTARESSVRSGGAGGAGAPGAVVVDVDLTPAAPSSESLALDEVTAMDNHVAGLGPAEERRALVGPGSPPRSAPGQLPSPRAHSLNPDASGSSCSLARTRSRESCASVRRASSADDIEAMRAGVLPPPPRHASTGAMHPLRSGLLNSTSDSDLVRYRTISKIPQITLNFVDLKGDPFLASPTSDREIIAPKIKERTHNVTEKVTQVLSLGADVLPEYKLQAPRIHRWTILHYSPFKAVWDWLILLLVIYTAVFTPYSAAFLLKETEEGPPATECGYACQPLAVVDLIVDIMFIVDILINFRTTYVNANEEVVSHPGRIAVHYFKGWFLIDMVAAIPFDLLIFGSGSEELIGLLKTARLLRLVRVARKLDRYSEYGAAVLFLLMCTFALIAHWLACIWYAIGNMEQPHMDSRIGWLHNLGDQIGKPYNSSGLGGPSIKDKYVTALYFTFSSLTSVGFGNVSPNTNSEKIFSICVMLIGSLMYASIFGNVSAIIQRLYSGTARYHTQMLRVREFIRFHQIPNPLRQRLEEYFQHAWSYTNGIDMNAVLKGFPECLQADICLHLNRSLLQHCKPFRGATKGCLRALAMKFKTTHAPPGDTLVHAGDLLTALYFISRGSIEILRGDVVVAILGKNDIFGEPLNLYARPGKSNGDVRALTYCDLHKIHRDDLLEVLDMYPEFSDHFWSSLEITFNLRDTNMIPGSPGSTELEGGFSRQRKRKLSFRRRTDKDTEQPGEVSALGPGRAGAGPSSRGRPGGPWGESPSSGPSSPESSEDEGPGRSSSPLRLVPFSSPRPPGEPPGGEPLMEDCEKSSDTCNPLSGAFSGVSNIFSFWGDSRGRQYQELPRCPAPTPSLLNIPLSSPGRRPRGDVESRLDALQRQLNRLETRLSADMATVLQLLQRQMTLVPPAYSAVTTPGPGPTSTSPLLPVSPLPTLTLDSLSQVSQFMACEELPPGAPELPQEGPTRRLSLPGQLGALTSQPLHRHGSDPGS
Chain of SCNSA sodium channel (Q14524 whole entry): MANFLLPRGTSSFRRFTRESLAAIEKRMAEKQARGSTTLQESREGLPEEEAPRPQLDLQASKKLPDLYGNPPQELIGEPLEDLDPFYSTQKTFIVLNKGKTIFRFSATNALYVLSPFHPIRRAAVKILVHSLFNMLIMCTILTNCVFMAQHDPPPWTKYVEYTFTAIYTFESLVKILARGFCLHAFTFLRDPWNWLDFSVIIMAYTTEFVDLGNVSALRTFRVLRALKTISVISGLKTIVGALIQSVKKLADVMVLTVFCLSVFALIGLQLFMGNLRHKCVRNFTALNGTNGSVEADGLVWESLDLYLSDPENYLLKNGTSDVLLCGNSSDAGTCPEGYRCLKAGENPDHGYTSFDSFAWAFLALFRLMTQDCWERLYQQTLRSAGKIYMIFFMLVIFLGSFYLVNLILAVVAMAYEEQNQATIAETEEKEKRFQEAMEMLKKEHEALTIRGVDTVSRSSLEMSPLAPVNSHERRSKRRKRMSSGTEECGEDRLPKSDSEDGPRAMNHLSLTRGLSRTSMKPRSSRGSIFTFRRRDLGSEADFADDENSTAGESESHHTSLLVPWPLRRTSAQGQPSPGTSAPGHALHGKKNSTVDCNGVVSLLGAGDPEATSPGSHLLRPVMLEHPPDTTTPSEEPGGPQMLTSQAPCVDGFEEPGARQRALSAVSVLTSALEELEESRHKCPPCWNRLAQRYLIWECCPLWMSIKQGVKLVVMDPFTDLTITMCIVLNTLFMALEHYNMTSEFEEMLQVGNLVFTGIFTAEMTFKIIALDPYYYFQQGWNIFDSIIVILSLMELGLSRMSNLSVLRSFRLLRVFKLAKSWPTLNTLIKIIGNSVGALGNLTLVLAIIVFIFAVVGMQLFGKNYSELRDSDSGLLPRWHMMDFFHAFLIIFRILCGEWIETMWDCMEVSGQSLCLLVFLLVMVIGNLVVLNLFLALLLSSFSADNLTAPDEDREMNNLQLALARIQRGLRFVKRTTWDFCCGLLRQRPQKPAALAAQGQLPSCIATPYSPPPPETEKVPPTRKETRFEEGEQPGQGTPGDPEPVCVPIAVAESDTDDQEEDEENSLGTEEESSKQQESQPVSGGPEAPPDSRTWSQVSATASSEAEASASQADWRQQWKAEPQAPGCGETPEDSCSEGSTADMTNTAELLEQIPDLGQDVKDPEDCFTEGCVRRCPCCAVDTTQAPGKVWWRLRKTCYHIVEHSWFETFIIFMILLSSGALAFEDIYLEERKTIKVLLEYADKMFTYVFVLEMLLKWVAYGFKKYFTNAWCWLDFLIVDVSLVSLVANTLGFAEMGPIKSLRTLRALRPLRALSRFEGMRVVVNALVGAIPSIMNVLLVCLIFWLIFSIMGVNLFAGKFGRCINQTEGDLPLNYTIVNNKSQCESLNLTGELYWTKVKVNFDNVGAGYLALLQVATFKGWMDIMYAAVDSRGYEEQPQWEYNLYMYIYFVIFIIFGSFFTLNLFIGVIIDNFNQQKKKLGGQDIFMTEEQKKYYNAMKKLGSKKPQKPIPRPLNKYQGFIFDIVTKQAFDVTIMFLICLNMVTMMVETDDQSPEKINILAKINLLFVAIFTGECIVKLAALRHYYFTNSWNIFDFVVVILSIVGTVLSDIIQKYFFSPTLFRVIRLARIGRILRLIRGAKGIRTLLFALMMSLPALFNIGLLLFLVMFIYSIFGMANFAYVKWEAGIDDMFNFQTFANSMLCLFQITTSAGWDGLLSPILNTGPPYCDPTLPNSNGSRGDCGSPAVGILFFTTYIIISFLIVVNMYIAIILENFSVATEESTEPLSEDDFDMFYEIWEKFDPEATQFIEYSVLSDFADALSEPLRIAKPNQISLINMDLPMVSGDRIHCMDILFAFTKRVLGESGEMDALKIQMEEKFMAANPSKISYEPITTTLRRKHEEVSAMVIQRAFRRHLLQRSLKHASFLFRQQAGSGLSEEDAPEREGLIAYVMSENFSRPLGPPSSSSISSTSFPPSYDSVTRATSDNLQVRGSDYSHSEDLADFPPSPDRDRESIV

Work on COc1cc(Cc2cnc(N)nc2N)c2c(c1OC)OC(C1CC1)C=C2 (racemic) [Iclaprim] yielded an AUC ([1]; 75 mg, 75 mg/10% PG (20 min)) of 1660 ng·h/mL, a Cmax ([1]; 75 mg, 75 mg/10% PG (20 min)) of 1290 ng/mL and an AUC ([1]; 150 mg, 150 mg/10% PG (20 min)) of 3600 ng·h/mL. It also gave an AUC [1, 15] of 3220 ng·h/mL, a Cmax ([1]; 150 mg, 150 mg/10% PG (20 min)) of 2350 ng/mL and a Cmax [1, 15] of 1870 ng/mL. For the same compound, the QTc prolongations ([2]; 3.2 mg/kg infused over 30 minutes) was > 60 ms, the “effect on QTc interval” value ([2]; 1.6 and 3.2 mg/kg infused over 30 minutes, dose-dependent) was “prolonged the QTc interval” and the Cmax (clinical [3]) was 854 ng/mL. For the same compound, the IC50 (SCNSA sodium channel) was 95 µM, the “adverse events related to QTc prolongation” value [4] was 4 cases and the “increase in AUC” value [5] was 2.5 fold. The “increase in Cmax” value [5] was 1.4 fold, the IC50 [6] was 0.9 µM and the AUC (clinical [7]; 0.25 mg/kg) was 598 ± 270 ng·h/mL. It also gave a Cmax (clinical [7]; 0.25 mg/kg) of 686 ± 279 ng/mL, an AUC (clinical [7]; 0.5 mg/kg) of 996 ng·h/mL and an AUC (clinical [7]; 1 mg/kg) of 1980 ng·h/mL. It also gave an AUC (clinical [7]; 2 mg/kg) of 4040 ng·h/mL, an AUC (clinical [7]; 4 mg/kg) of 6810 ng·h/mL and a Cmax (clinical [7]; 4 mg/kg) of 4020 ng/mL. For the same compound, the “efficacy, non-inferiority (−10% margin) to linezolid” value (cSSSIs) was “did not meet the FDA criteria of non-inferiority to linezolid; also recorded: failed to show efficacy”, the AUC at 13 week ([8]; female) was 26600 ng·h/mL and the AUC at 13 week ([8]; male) was 26900 ng·h/mL. For the same compound, the “post-infusion QTcF prolongation from baseline (any subject)” value [9] was ≤ 60 ms, the AUC at 13 week ([10]; female) was 20400 ng·h/mL and the AUC at 13 week ([10]; male) was 7260 ng·h/mL. For the same compound, the MIC90 (S. aureus) was 0.12 µg/mL (≈ 0.339 µM), the Cmax (clinical [11]) was 792 ng/mL and the “concentration above which action potential duration was increased” value [12] was “above 1 μM”. For the same compound, the “non-inferiority (10% margin) compared to vancomycin” value ([13]; ETP) was “achieved the primary endpoint of non-inferiority; also recorded: non-inferior”, the “non-inferiority (10% margin) compared to vancomycin” value ([13]; TOC) was “achieved NI” and the “Early Clinical Response (ECR), number of subjects” value ([13]; ETP (48 to 72 hours)) was 241. For the same compound, the “Early Clinical Response (ECR), percent of subjects” value ([13]; ETP (48 to 72 hours)) was 80.9%, the “Early Clinical Response (ECR), % Difference iclaprim vs vancomycin” value ([13]; ETP) was −0.13% and the “Clinical cure, number of subjects” value ([13]; TOC (7 to 14 days after study drug discontinuation)) was 251. The “Clinical cure, % Difference iclaprim vs vancomycin” value ([13]; TOC) was −2.77%, the “Clinical cure, percent of subjects” value ([13]; TOC) was 84.2% and the “dose-related increase in QTc” value [14] was “did not”.
